The values below come from patent US10077261B2, “Imidazolin-5-one derivative useful as FASN inhibitors for the treatment of cancer” (Janssen Pharmaceutica NV, priority 2012, dated 2018).

The experiment has as its target T1, hFASN enzyme (full length) (Homo sapiens, UniProt P49327).
T1 construct: 10 μL hFASN enzyme (full length, 300 ng, purified in house); made in house
As to the kind of experiment: Fatty Acid Synthase (FASN) inhibition scintillation proximity assay. Format: biochemical. As to conditions: for inhibition at 10 µM: read-out: Human FASN % inhibition @ 10 μM, 10 μM test compound; for IC50: read-out: Human FASN pIC50 (converted). Here is the method: In this assay, inhibition of FASN activity is measured using ^3H-acetyl-CoA and malonyl-CoA as substrates. ^3H-Acetyl CoA is converted to ^3H-palmitate through a series of reactions by the FASN protein, which contains 7 functional domains and carries out 7 enzymatic reactions to ultimately produce ^3H-palmitate. The assay principle is based upon the fact that ^3H-acetyl-CoA is hydrophilic and the end product, ^3H-palmitate is hydrophobic.
10 μL assay buffer (100 mM KH2PO4 pH 7.5, 1 mM DTT) (20 μL in blanks) was added to a 384-well white optiplate plate (Perkin Elmer). 0.9 μL test compound (at concentrations of 30 μM, 10 μM, 3 μM, 1 μM, 0.30 μM, 0.10 μM, 0.03 μM and 0.01 μM)/DMSO and 10 μL hFASN enzyme (full length, 300 ng, purified in house) or 10 μL assay buffer was added to the wells. […] The reaction was stopped by adding 20 μL Streptavidin coupled imaging beads (25 mg/ml). After incubation for 30 minutes at room temperature in the dark, the 384 well plate was centrifuged at 1500 rpm for 3 minutes and was measured after at least 24 hrs by the LEADseeker™, measuring emission using a 610±20 nm pass filter.
where mLC and mHC were the means of the low control wells and high control wells on the plate, after manual exclusion of outliers. A plot of Controlmin versus test compound concentration was fitted to a 4-parameter logistic curve using a non-linear least squares regression method.
A general note: SPA uses beads or plates that emit light when radiolabelled molecules are held near them.

T1 sequence (P49327 whole entry): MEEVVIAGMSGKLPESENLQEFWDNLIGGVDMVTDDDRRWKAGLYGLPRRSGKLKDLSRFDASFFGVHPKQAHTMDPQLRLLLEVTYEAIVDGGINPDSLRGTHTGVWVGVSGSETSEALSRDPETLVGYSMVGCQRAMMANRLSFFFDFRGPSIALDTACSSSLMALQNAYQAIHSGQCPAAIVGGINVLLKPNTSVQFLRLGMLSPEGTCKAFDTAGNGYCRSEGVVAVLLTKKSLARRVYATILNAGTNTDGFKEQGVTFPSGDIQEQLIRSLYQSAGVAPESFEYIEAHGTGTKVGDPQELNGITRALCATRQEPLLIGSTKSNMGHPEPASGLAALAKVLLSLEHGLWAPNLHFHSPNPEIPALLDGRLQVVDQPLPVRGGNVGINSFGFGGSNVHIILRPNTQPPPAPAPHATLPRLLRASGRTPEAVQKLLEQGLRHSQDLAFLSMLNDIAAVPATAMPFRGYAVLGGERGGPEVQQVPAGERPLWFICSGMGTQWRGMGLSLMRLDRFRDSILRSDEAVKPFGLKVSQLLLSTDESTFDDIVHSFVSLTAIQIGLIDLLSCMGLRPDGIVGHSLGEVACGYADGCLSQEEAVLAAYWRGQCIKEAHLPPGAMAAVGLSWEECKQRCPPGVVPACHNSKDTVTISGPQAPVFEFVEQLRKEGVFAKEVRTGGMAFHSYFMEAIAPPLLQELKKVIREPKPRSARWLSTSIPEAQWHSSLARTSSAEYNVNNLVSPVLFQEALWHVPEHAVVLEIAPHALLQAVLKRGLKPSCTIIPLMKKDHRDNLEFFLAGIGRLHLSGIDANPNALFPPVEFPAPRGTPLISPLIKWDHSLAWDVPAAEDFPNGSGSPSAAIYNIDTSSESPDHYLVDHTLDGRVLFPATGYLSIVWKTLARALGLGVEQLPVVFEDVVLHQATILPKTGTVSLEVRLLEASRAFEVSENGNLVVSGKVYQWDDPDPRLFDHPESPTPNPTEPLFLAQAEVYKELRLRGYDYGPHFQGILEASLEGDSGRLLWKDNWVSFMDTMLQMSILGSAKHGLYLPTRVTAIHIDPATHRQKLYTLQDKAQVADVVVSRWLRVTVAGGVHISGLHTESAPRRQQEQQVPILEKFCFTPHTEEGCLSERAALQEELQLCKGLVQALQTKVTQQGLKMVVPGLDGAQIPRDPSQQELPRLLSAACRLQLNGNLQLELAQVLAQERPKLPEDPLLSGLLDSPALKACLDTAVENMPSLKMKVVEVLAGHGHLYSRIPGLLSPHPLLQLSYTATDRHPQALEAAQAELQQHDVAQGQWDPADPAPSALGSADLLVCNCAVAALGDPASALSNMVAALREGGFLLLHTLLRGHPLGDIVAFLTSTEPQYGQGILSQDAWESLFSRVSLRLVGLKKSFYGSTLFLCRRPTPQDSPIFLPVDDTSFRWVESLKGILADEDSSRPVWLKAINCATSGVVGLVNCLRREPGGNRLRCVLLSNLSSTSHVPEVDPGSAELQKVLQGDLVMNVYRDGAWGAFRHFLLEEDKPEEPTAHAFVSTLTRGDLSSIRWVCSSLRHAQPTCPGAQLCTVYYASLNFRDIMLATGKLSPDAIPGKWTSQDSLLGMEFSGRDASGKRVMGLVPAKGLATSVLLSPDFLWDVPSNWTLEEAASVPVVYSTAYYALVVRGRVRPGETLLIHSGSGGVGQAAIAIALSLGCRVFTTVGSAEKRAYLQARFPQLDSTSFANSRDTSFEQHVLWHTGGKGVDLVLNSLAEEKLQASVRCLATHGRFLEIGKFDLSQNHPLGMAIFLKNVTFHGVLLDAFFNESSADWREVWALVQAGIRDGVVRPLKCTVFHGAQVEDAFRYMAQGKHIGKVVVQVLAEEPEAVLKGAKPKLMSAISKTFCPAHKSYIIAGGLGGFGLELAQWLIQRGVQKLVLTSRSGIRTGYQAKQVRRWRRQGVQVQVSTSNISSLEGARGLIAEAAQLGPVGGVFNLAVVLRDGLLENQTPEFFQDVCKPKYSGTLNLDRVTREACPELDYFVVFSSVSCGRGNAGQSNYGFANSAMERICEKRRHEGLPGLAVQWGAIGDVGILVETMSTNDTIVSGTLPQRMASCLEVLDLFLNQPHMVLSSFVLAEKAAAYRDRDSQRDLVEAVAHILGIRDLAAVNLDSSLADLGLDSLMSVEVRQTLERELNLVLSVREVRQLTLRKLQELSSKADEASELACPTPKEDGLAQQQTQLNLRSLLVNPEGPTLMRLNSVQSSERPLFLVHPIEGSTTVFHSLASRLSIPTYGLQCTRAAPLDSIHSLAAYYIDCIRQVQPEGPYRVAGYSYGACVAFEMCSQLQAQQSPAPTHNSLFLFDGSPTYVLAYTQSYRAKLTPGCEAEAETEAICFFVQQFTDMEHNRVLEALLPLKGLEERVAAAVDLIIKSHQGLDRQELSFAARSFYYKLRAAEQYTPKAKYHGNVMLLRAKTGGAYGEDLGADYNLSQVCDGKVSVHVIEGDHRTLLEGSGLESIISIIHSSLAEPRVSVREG

Regarding `O=CNc1cc(-c2ccc(C3=NC4(CC4)C(=O)N3CC3CN(C(=O)C4CC4)C3)cc2)ccc1O` [compound 54, N-[4′-(6-{[-(Cyclopropylcarbonyl)azetidin-3-yl]methyl}-7-oxo-4,6-diazaspiro[2.4]hept-4-en-5-yl)-4-hydroxybiphenyl-3-yl]formamide], the inhibition at 10 µM worked out at 64.7% and the IC50 was 4.68 µM.
In the case of `O=C(C1CC1)N1CCC(CN2C(=O)C3(CC3)N=C2c2ccc(-c3ccc(O)cc3)cc2)CC1` [compound 55, 6-{[1-(Cyclopropylcarbonyl)piperidin-4-yl]methyl}-5-(4′-hydroxybiphenyl-4-yl)-4,6-diazaspiro[2.4]hept-4-en-7-one], the inhibition at 10 µM was 32.7% and the IC50 is above 10 µM.
As for `O=C(C1CC1)N1CCC(CN2C(=O)C3(CC3)N=C2c2ccc(-c3ccc(-c4ccncc4)cc3)cc2)CC1` [compound 61, 6-{[1-(Cyclopropylcarbonyl)piperidin-4-yl]methyl}-5-(4′-pyridin-4-ylbiphenyl-4-yl)-4,6-diazaspiro[2.4]hept-4-en-7-one], the inhibition at 10 µM came out at 63.2% and the IC50 is 3.98 µM.
Take `Cn1nccc1-c1ccc(-c2ccc(C3=NC4(CC4)C(=O)N3CC3CCN(C(=O)C4CC4)CC3)cc2)cc1` [compound 62, 6-{[1-(Cyclopropylcarbonyl)piperidin-4-yl]methyl}-5-[4′-(1-methyl-1H-pyrazol-5-yl)biphenyl-4-yl]-4,6-diazaspiro[2.4]hept-4-en-7-one]: the inhibition at 10 µM amounted to 29.3% and the IC50 was above 10 µM.
The corresponding values for `N#Cc1cccc(-c2ccc(C3=NC4(CCCC4)C(=O)N3C[C@@H]3CCN(C(=O)C4CC4)C3)cc2)c1` [compound 83, 4′-(3-{[(3R)-1-(Cyclopropylcarbonyl)pyrrolidin-3-yl]methyl}-4-oxo-1,3-diazaspiro[4.4]non-1-en-2-yl)biphenyl-3-carbonitrile] are 65.6% and 4.79 µM.
On to `CS(=O)(=O)Nc1cccc(-c2ccc(C3=NC4(CCCC4)C(=O)N3C[C@@H]3CCN(C(=O)C4CC4)C3)cc2)c1` [compound 84, N-[4′-(3-{(3R)-1-(Cyclopropylcarbonyl)pyrrolidin-3-yl]methyl}-4-oxo-1,3-diazaspiro[4.4non-1-en-2-yl)biphenyl-3-yl]methanesulfonamide], for which the inhibition at 10 µM was 89.2% and the IC50 is 1 µM.
Taken in the same sequence, the figures for `O=C(C1CC1)N1CC[C@@H](CN2C(=O)C3(CCCC3)N=C2c2ccc(-c3ccc(-c4nn[nH]n4)cc3)cc2)C1` [compound 91, 3-{[(3R)-1-(Cycloprropylcarbonyl)pyrrolidin-3-yl]methyl}-2-[4′-(2H-tetrazol-5-yl)biphenyl-4-yl]-1,3-diazaspiro[4.4]non-1-en-4-one] were 21.3% and above 10 µM.
The corresponding values for `NC(=O)CN1CC[C@@H](CN2C(=O)C3(CCN(Cc4ccccc4)CC3)N=C2c2ccc(-c3ccc4occc4c3)cc2)C1` [compound 95, 2-[(3R)-3-({2-[4-(1-Benzofuran-5-yl)phenyl]-8-benzyl-4-oxo-1,3,8-triazaspiro[4.5]dec-1-en-3-yl}methyl)pyrrolidin-1-yl]acetamide] are 24.4% and above 10 µM.
Taken in the same sequence, the figures for `O=C(CN1CC[C@@H](CN2C(=O)C3(CCN(Cc4ccccc4)CC3)N=C2c2ccc(-c3ccc4occc4c3)cc2)C1)C1CC1` [compound 96, 2-[4-(1-Benzofuran-5-yl)phenyl]-8-benzyl-3-{[(3R)-1-(2-cyclopropyl-2-oxoethyl)pyrrolidin-3-yl]methyl}-1,3,8-triazaspiro[4.5]dec-1-en-4-one] were 71.2% and 5.01 µM.
For the molecule `Cc1ccc(-c2ccc(C3=NC4(CC4)C(=O)N3CC3CCN(C(=O)C4CC4)CC3)cc2)cc1` [compound 97, 6-{[1-(Cyclopropylcarbonyl)piperidin-4-yl]methyl}-5-(4′-methylbiphenyl-4-yl)-4,6-diazaspiro[2.4]hept-4-en-7-one], the inhibition at 10 µM stood at 58.7% and the IC50 was 5.62 µM.

For orientation: inhibition means the share of the control response that was lost under treatment.
